# Reference: patent US20260116921A1, “PEPTIDE INHIBITORS OF INTERLEUKIN-23 RECEPTOR AND THEIR USE TO TREAT INFLAMMATORY DISEASES” (priority 2018, published 2026)
# Numbered stars: 1 amine (or outer) side, 2 acyl side, 3 side chain; on linkers, the order of the positions; unused ones are H or OH. Bridge positions count the residues as written; N and C are the ends. Square brackets hold non-standard residues; d marks the D form. Peptide text beside a SMILES is read from it. Trp(7-nPr) = CCCc1cccc2c(C[C@H](N[*:1])C(=O)[*:2])c[nH]c12; Trp(7-Me) = Cc1cccc2c(C[C@H](N)C(=O)O)c[nH]c12; 2Nal = N[C@@H](Cc1ccc2ccccc2c1)C(=O)O; AEF = NCCOc1ccc(C[C@H](N)C(=O)O)cc1; Cit = NC(=O)NCCC[C@H](N)C(=O)O; αMeL = CC(C)C[C@](C)(N)C(=O)O; Pen = CC(C)(S)[C@H](N)C(=O)O; αMeK = C[C@](N)(CCCCN)C(=O)O; βAla = NCCC(=O)O
# T1: IL-23R (Homo sapiens, UniProt Q5VWK5)
# T1 sequence (Q5VWK5 24-629): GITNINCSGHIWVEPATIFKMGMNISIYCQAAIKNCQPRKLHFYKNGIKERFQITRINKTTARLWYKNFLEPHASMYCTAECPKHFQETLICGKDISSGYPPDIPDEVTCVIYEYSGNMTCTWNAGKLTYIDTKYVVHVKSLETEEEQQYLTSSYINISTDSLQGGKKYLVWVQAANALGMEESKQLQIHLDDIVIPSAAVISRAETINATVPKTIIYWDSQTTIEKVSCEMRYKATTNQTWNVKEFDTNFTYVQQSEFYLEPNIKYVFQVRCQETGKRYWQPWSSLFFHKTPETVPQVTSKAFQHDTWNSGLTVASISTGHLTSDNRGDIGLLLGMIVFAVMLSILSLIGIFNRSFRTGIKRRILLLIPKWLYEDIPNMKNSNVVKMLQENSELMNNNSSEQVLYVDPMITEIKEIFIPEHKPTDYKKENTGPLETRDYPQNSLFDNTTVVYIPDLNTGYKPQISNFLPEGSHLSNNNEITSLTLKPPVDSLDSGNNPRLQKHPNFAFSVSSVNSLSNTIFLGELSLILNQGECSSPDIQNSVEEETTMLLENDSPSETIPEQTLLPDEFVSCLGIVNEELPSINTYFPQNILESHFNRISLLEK
# T2: IL-23R (human, UniProt Q5VWK5 24-629)
# T2 sequence (looked up): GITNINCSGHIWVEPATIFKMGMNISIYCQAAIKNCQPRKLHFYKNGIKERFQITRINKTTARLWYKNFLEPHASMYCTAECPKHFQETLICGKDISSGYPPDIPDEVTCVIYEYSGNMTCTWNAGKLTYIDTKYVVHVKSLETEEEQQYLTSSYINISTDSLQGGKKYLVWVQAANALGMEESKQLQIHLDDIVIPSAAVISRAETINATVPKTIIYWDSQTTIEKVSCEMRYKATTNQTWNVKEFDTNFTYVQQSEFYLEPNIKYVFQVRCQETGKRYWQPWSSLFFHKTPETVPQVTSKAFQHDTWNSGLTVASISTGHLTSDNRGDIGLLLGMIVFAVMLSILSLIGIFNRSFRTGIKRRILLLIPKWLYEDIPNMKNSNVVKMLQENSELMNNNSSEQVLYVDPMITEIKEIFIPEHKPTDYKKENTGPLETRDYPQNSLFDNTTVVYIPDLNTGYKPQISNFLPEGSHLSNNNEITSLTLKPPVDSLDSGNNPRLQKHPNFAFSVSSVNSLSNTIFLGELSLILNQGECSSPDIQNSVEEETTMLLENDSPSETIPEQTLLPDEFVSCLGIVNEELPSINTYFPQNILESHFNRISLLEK
# Legend:
# [1] = in vitro; conditions: cynomolgus monkey, 20% fecal homogenate (supernatant), anaerobic, pH 6.8
# [2] = biological target: T1, IL-23R; test: DB cells IL23R pSTAT3 cell assay (pStat3 HTRF); format: cell-based; conditions: Table E3; DB cells, IL-23 0.5 nM, 30 minutes at 37° C.; read-out: pStat3 HTRF (IC50)
# Procedure, shortened: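 DB cells (5×10E5/well, RPMI-1640 + 10% FBS) stimulated with 0.5 nM final IL-23 plus serially diluted test peptides for 30 min at 37 °C, 5% CO2. Phospho-STAT3 (Tyr705) in lysates measured by HTRF using a two-plate protocol.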
# [3] = system: NK cells; test: NK cell based assay (IL-23/IL-18-induced IFNγ, Quantikine ELISA); conditions: human primary NK cells, IL-23 at EC50 to EC75 + IL-18 10 ng/mL, IFNγ after 20 to 24 hours
# Protocol: killer (NK) cells, purified from human peripheral blood of healthy donors by negative selection (Miltenyi Biotech, Cat #130-092-657), were cultured in complete media (RPMI 1640 containing […], L-glutamine and penicillin-streptomycin) in the presence of IL-2 (RnD, Cat #202-IL-010/CF) at 25 ng/mL. After 7 days, cells were centrifuged, and resuspended in complete media at IE6 cells/mL. […] After 20 to 24 hours, IFNγ in the supernatant was quantified using Quantikine ELISA (RnD, Cat #DIF50).
# [4] = in vitro; conditions: human, 20% fecal homogenate (supernatant), anaerobic, pH 6.8
# [5] = biological target: T2, IL-23R; test: cell-based or functional assay
# [6] = biological target: T2, IL-23R; test: cell-based or functional assay; remark: listed apart in the source
Molecule,half-life at 20 μM [1],IC50 [2],IC50 [3],half-life at 20 μM [4],pStat3 HTRF (nM) IC50 [5],NK Cell Assay (nM) IC50 [6]
CC(=O)NCCCC[C@H](NC(=O)[C@](C)(CCCCN)NC(=O)[C@H](Cc1ccc2ccccc2c1)NC(=O)[C@H](Cc1ccc(OCCN)cc1)NC(=O)[C@H]1NC(=O)[C@H](CCC(N)=O)NC(=O)[C@H](Cc2c[nH]c3c(C)cccc23)NC(=O)[C@H]([C@@H](C)O)NC(=O)[C@H](CC(N)=O)NC(=O)[C@@H](NC(C)=O)C(C)(C)SSC1(C)C)C(=O)N[C@@H](CC(N)=O)C(=O)NCCC(N)=O [compound 202],12 h,1 to 10 nM,< 10 nM,,,
CC(=O)NCCCC[C@H](NC(=O)[C@](C)(CC(C)C)NC(=O)[C@H](Cc1ccc2ccccc2c1)NC(=O)[C@H](Cc1ccc(OCCN)cc1)NC(=O)[C@H]1NC(=O)[C@H](CCC(N)=O)NC(=O)[C@H](Cc2c[nH]c3c(C)cccc23)NC(=O)[C@H]([C@@H](C)O)NC(=O)[C@H](CC(N)=O)NC(=O)[C@@H](NC(C)=O)C(C)(C)SSC1(C)C)C(=O)N[C@@H](CCCNC(N)=O)C(=O)NCCC(N)=O [compound 206],> 24 h,10 to 100 nM,11 to 100 nM,20 h,,
CC(=O)NCCCC[C@H](NC(=O)[C@](C)(CC(C)C)NC(=O)[C@H](Cc1ccc2ccccc2c1)NC(=O)[C@H](Cc1ccc(OCCN)cc1)NC(=O)[C@H]1NC(=O)[C@H](CCC(N)=O)NC(=O)[C@H](Cc2c[nH]c3c(C)cccc23)NC(=O)[C@H]([C@@H](C)O)NC(=O)[C@H](CC(N)=O)NC(=O)[C@@H](NC(C)=O)C(C)(C)SSC1(C)C)C(=O)N(C)CC(=O)NCCC(N)=O [compound 224],> 24 h,> 100 nM,101 to 500 nM,> 24 h,,
CC(=O)NCCCC[C@H](NC(=O)[C@](C)(CC(C)C)NC(=O)[C@H](Cc1ccc2ccccc2c1)NC(=O)[C@H](Cc1ccc(OCCN)cc1)NC(=O)[C@H]1NC(=O)[C@H](CCC(N)=O)NC(=O)[C@H](Cc2c[nH]c3c(C)cccc23)NC(=O)[C@H]([C@@H](C)O)NC(=O)[C@H](CC(N)=O)NC(=O)[C@@H](NC(C)=O)C(C)(C)SSC1(C)C)C(=O)N[C@@](C)(CC(C)C)C(=O)NCCC(N)=O [compound 225],> 24 h,10 to 100 nM,101 to 500 nM,> 24 h,,
CC(=O)NCCCC[C@H](NC(=O)[C@](C)(CC(C)C)NC(=O)[C@H](Cc1ccc2ccccc2c1)NC(=O)[C@H](Cc1ccc(OCCN)cc1)NC(=O)[C@H]1NC(=O)[C@H](CCCNC(N)=O)NC(=O)[C@H](Cc2c[nH]c3c(C)cccc23)NC(=O)[C@H]([C@@H](C)O)NC(=O)[C@H](CC(N)=O)NC(=O)[C@@H](NC(C)=O)C(C)(C)SSC1(C)C)C(=O)N[C@@H](CC(N)=O)C(=O)NCCC(N)=O [compound 227] (Ac-[Pen]NT[Trp(7-Me)][Cit][Pen][AEF][2Nal][αMeL]K(Ac)N[βAla]-NH2; disulfide 1-6),,< 1 nM,< 10 nM,,,
XNTXQXXXXKNX (Ac-[Pen]-N-T-[W(7-Me)]-Q-[Pen]-Phe[4-(2-aminoethoxy)]-[2-Nal]-[a-MeOrn]-[Lys(Ac)]-N-[bA]-NH2; Pen-Pen disulfide) [SEQ ID NO: 278],,,,,< 1 nM,< 10 nM
Ac-[Pen]NT[Trp(7-nPr)]K(Ac)[Pen][AEF][2Nal][αMeK]K(Ac)N[dL]-NH2 (disulfide 1-6 (inferred)) [SEQ ID NO: 285],,,,,< 1 nM,< 10 nM
XNTXQXXXXKNX (Ac-[Pen]-NT-[W(7-Me)]-Q-[Pen]-Phe[4-(2-aminoethoxy)]-[2-Nal]-[a-MeLeu]-[Lys(Ac)]-N-[bA]-NH2; Pen-Pen disulfide) [SEQ ID NO: 201],,,,,< 1 nM,< 10 nM
XNTXQXXXXKXX (Ac-[Pen]-NT-[W(7-Me)]-Q-[Pen]-Phe[4-(2-aminoethoxy)]-[2-Nal]-[a-MeLeu]-[Lys(Ac)]-[N-MeAla]-[bA]-NH2; Pen-Pen disulfide) [SEQ ID NO: 223],,,,,> 100 nM,< 10 nM
Ac-[Pen]NT[Trp(7-Me)][Cit][Pen][AEF][2Nal][αMeL]K(Ac)N[βAla]-NH2 (disulfide 1-6) [SEQ ID NO: 227],,,,,< 1 nM,< 10 nM
